ChEMBL document CHEMBL4706752 (ACS Med Chem Lett, 2021)
The source made the active and inactive calls. The rule behind the calls is not given here.

How the values were obtained:
[1] = Cmax in Sprague-Dawley rat at 4 mg/kg, po; type: ADME, organism-based; design: route oral, dose 4 mg/kg; details: in vivo
[2] = Oral bioavailability in cynomolgus monkey at 2 mg/kg; type: ADME, organism-based, Macaca fascicularis; details: in vivo
Mus musculus [3] = assay: Suppression of ear thickness in C57BL/6 mouse model of IL-23 induced acanthosis model of psoriasis assessed as AUC of %change in ear thickness at 10 mg/kg, po BID for 10 days measured every other day; type: functional; details: time 10 day
[4] = Cmax in dog at 2 mg/kg, po; type: ADME, organism-based, Canis lupus familiaris; design: route oral, dose 2 mg/kg; details: in vivo
Cytochrome P450 2C9 = Cytochrome P450 2C9 (Homo sapiens, UniProt P11712); assay: Inhibition of CYP2C9 (unknown origin); type: ADME
[5] = Decrease in IL-6 gene expression in C57BL/6 mouse model of IL-23 induced acanthosis model of psoriasis at 20 mg/kg, po BID for 10 days by RT-PCR analysis; type: functional; details: C57BL/6, po, 240 h, time 10 day
[6] = Tmax in Sprague-Dawley rat at 4 mg/kg, po; type: ADME, organism-based; details: in vivo
[7] = Decrease in LCN2 gene expression in C57BL/6 mouse model of IL-23 induced acanthosis model of psoriasis at 5 mg/kg, po BID for 10 days by RT-PCR analysis; type: functional; details: C57BL/6, po, 240 h, time 10 day
[8] = Unbound volume of distribution at steady state in cynomolgus monkey at 1 mg/kg, iv; type: ADME, organism-based, Macaca fascicularis; details: in vivo
[9] = Tmax in dog at 2 mg/kg, po; type: ADME, organism-based, Canis lupus familiaris; details: in vivo
[10] = Metabolic stability in mouse liver microsomes assessed as compound remaining after 10 mins; type: ADME, Microsome; details: read-out: Stabilty
[11] = Clearance in cynomolgus monkey at 1 mg/kg, iv; type: ADME, organism-based, Macaca fascicularis; details: in vivo
[12] = Decrease in LCN2 gene expression in C57BL/6 mouse model of IL-23 induced acanthosis model of psoriasis at 20 mg/kg, po BID for 10 days by RT-PCR analysis; type: functional; details: C57BL/6, po, 240 h, time 10 day
[13] = molecular target: T1, Nuclear receptor subfamily 1 group I member 2 (Homo sapiens, UniProt O75469); assay: Inhibition of PXR (unknown origin)
T1 sequence (O75469 whole entry): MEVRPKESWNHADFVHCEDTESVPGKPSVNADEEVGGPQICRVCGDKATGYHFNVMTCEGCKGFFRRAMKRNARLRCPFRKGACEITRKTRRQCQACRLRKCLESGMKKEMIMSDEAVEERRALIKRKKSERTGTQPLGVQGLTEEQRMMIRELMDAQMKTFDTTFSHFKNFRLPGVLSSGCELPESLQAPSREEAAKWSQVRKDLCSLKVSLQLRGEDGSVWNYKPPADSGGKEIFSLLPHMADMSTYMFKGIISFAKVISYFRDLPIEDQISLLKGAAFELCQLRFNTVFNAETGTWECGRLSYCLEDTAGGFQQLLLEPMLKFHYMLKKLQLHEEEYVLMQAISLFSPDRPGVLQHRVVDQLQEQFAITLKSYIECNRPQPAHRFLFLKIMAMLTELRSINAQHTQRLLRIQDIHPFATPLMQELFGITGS

[14] = Cmax in Balb/c mouse at 4 mg/kg, po; type: ADME, organism-based; design: route oral, dose 4 mg/kg; details: in vivo
Mus musculus [15] = assay: Suppression of ear thickness in C57BL/6 mouse model of IL-23 induced acanthosis model of psoriasis assessed as AUC of %change in ear thickness at 5 mg/kg, po BID for 10 days measured every other day; type: functional; details: time 10 day
[16] = AUC in dog at 2 mg/kg, po; type: ADME, organism-based, Canis lupus familiaris; design: dose 2 mg/kg; details: in vivo
[17] = Oral bioavailability in dog at 2 mg/kg; type: ADME, organism-based, Canis lupus familiaris; details: in vivo
[18] = molecular target: T2, Oxysterols receptor LXR-beta (Homo sapiens, UniProt P55055); assay: Inhibition of LXRbeta (unknown origin)
T2 sequence (P55055 whole entry): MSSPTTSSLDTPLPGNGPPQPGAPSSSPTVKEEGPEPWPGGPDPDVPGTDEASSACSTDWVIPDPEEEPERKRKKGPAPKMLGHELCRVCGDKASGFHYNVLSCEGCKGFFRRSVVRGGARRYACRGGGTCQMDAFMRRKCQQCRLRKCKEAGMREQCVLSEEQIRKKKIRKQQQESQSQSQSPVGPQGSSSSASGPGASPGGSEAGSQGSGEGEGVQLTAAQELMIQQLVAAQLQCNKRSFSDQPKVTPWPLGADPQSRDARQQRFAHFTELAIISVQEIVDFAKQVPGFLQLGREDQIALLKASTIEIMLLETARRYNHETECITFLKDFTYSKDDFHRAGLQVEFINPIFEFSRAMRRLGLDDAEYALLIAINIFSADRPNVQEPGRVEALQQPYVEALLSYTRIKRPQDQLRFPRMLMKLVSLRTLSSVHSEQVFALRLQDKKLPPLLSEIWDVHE

[19] = Unbound volume of distribution at steady state in Sprague-Dawley rat at 2 mg/kg, iv; type: ADME, organism-based; details: in vivo
[20] = AUC in Balb/c mouse at 4 mg/kg, po; type: ADME, organism-based; design: dose 4 mg/kg; details: in vivo
[21] = AUC in Sprague-Dawley rat at 2 mg/kg, iv; type: ADME, organism-based; design: dose 2 mg/kg; details: in vivo
[22] = Apparent permeability across apical to basolateral membrane in human Caco2 cells; type: ADME, cell-based; details: Caco-2
[23] = Decrease in IL-17a gene expression in C57BL/6 mouse model of IL-23 induced acanthosis model of psoriasis at 20 mg/kg, po BID for 10 days by RT-PCR analysis; type: functional; details: C57BL/6, po, 240 h, time 10 day
Mus musculus [24] = assay: Antiinflammatory activity in DBA/1J mouse model of collagen-induced arthritis assessed as reduction in Anti-CII Ab level at 5 to 20 mg/kg, po dosed twice daily for 21 days; type: functional, organism-based; details: dose 5-20 mg/kg, time 21.0 day
Cytochrome P450 2C8 = molecular target: T3, Cytochrome P450 2C8 (Homo sapiens, UniProt P10632); assay: Inhibition of CYP2C8 (unknown origin); type: ADME
T3 sequence (P10632 whole entry): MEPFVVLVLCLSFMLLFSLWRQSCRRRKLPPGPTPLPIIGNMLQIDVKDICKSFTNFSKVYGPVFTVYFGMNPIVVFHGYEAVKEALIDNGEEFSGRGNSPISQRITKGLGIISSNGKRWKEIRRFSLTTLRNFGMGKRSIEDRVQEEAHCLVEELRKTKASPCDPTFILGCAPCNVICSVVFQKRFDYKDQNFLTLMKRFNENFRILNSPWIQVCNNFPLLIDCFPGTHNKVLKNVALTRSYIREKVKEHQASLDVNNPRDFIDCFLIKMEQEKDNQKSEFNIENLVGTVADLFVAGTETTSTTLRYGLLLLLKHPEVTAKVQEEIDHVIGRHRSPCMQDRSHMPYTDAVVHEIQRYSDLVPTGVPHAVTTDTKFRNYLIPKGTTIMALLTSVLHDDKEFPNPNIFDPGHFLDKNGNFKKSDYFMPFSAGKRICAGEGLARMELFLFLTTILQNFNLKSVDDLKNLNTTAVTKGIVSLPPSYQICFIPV

[25] = Oral bioavailability in Balb/c mouse at 4 mg/kg; type: ADME, organism-based; details: in vivo
[26] = Tmax in Balb/c mouse at 4 mg/kg, po; type: ADME, organism-based; details: in vivo
Mus musculus [27] = assay: Antiinflammatory activity in DBA/1J mouse model of collagen-induced arthritis assessed as reduction in clinical score at 20 mg/kg, po dosed twice daily for 21 days measured on day 51; type: functional; details: 504 h, time 21 day
[28] = Clearance in dog at 1 mg/kg, iv; type: ADME, organism-based, Canis lupus familiaris; details: in vivo

Cytochrome P450 2C9, sequence (P11712 whole entry): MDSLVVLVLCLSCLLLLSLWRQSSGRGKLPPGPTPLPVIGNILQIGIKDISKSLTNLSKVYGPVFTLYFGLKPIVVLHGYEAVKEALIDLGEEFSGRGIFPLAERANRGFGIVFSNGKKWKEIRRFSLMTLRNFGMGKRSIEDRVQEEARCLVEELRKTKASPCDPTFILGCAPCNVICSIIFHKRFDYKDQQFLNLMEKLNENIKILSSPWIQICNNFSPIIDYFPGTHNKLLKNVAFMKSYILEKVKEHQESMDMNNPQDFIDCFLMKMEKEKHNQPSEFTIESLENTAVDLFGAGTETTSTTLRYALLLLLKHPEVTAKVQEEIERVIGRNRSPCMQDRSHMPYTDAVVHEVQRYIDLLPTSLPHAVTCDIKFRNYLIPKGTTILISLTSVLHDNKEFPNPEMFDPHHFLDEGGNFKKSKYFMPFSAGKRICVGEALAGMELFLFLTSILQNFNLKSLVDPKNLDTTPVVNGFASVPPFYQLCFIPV

- Cmax [1]: 1600 nM
- bioavailability [2]: 73%
- Cmax [4]: 1700 nM
- IC50 (Cytochrome P450 2C9): > 20 µM
- Tmax [6]: 4 h
- fVdss [8]: 2.7 L/kg
- Tmax [9]: 7 h
- remaining at 10 min [10]: 98%
- clearance [11]: 2.8 mL/min/kg
- EC50 [13]: > 10 µM
- Cmax [14]: 2800 nM
- AUC [16]: 163 µM·h
- bioavailability [17]: 72%
- EC50 [18]: > 10 µM
- fVdss [19]: 2.5 L/kg
- AUC [20]: 45.9 µM·h
- AUC [21]: 26.3 µM·h
- Papp A→B [22]: 11 ×10⁻⁶ cm/s
- IC50 (Cytochrome P450 2C8): 7.6 µM
- bioavailability [25]: 101%
- Tmax [26]: 2 h
- clearance [28]: 0.22 mL/min/kg
Structure (SMILES): C[C@@](O)(CS(C)(=O)=O)C(=O)N[C@@H]1CC[C@@]2(S(=O)(=O)c3ccc(F)cc3)c3ccc(C(F)(C(F)(F)F)C(F)(F)F)nc3CC[C@@H]12
- Activity (Mus musculus [3]): 66.5%
- inhibition in vivo at 20 mg/kg [5]: 77.4%
- inhibition in vivo at 5 mg/kg [7]: 62.4%
- inhibition in vivo at 20 mg/kg [12]: 82.9%
- Activity (Mus musculus [15]): 34.4%
- inhibition in vivo at 20 mg/kg [23]: 87.7%
- Activity (Mus musculus [24]): Active
- inhibition in vivo at 20 mg/kg (Mus musculus [27]): 78%
